Experimental data taken from patent publication US10975077B2 (Novira Therapeutics, Inc., priority 2016, dated 2021).

test system: HBV (encapsidated HBV DNA, HepG2.2.15 cells); assay: HBV replication inhibition assay, BDNA assay in HepG2.2.15 cells; assay type: cell-based; settings: Activity in BDNA-assay
Protocol: HBV replication inhibition by the disclosed compounds were determined in cells infected or transfected with HBV, or cells with stably integrated HBV, such as HepG2.2.15 cells (Sells et al. 1987). In this example, HepG2.2.15 cells were maintained in cell culture medium containing 10% fetal bovine serum (FBS), Geneticin, L-glutamine, penicillin and streptomycin. HepG2.2.15 cells were seeded in 96-well plates at a density of 40,000 cells/well and were treated with serially diluted compounds at a final DMSO concentration of 0.5% either alone or in combination by adding drugs in a checker box format. Cells were incubated with compounds for three days, after which medium was removed and fresh medium containing compounds was added to cells and incubated for another three days. At day 6, supernatant was removed and treated with DNase at 37° C. for 60 minutes, followed by enzyme inactivation at 75° C. for 15 minutes. Encapsidated HBV DNA was released from the virions and covalently linked HBV polymerase by incubating in lysis buffer (Affymetrix QS0010) containing 2.5 μg proteinase K at 50° C. for 40 minutes. HBV DNA was denatured by addition of 0.2 M NaOH and detected using a branched DNA (BDNA) QuantiGene assay kit according to manufacturer recommendation (Affymetrix). HBV DNA levels were also quantified using qPCR, based on amplification of encapsidated HBV DNA extraction with QuickExtraction Solution (Epicentre Biotechnologies) and amplification of HBV DNA using HBV specific PCR probes that can hybridize to HBV DNA and a fluorescently labeled probe for quantitation. In addition, cell viability of HepG2.2.15 cells incubated with test compounds alone or in combination was determined by using CellTitre-Glo reagent according to the manufacturer protocol (Promega). The mean background signal from wells containing only culture medium was subtracted from all other samples, and percent inhibition at each compound concentration was calculated by normalizing to signals from HepG2.2.15 cells treated with 0.5% DMSO using equation E1. % inhibition=(DMSOave−Xi)/DMSOave×100% E1: where DMSOave is the mean signal calculated from the wells that were treated with DMSO control (0% inhibition control) and Xi is the signal measured from the individual wells. EC50 values, effective concentrations that achieved 50% inhibitory effect, were determined by non-linear fitting using Graphpad Prism software (San Diego, Calif.) and equation E2: Y=Y min+(Y max −Y min)/(1+10(Log EC50−X)×HillSlope) E2: […]
where Y represents percent inhibition values and X represents the logarithm of compound concentrations.
Selected disclosed compounds were assayed in the HBV replication assay (BDNA assay), as described above and a representative group of these active compounds is shown in Table 6.

| Structure (SMILES) | EC50 [nM] |
| --- | --- |
| CCC(O)C1CN(C)C(=O)c2c3c(nn2C1)CCN(C(=O)Nc1ccc(F)c(C#N)c1F)C3 (single isomer, unassigned) [Compound 098_E3, (S*)—N-(3-cyano-2,4-difluorophenyl)-8-((S*)-1-hydroxypropyl)-10-methyl-11-oxo-1,3,4,7,8,9,10,11-octahydro-2H-pyrido[4′,3′:3,4]pyrazolo[1,5-a][1,4]diazepine-2-carboxamide] | 100 to 500 |
| C[C@@H]1Cc2nn3c(c2CN1C(=O)Nc1ccc(F)c(Cl)c1F)C(=O)N(C)CC(CO)C3 (single isomer, unassigned) [Compound 089_D2, (3R,8R*)—N-(3-chloro-2,4-difluorophenyl)-8-(hydroxymethyl)-3,10-dimethyl-11-oxo-1,3,4,7,8,9,10,11-octahydro-2H-pyrido[4′,3′:3,4]pyrazolo[1,5-a][1,4]diazepine-2-carboxamide] | 1 to 100 |
| CN1CC(CNCC(F)F)Cn2nc3c(c2C1=O)CN(C(=O)Nc1ccc(F)c(Br)c1)CC3 (single isomer, unassigned) [Compound 130_E2, (S*)—N-(3-bromo-4-fluorophenyl)-8-(((2,2-difluoroethyl)amino)methyl)-10-methyl-11-oxo-1,3,4,7,8,9,10,11-octahydro-2H-pyrido[4′,3′:3,4]pyrazolo[1,5-a][1,4]diazepine-2-carboxamide] | 1 to 100 |
| C[C@@H]1Cc2nn3c(c2CN1C(=O)Nc1ccc(F)c(Br)c1)C(=O)N(C)CC(CO)C3 (single isomer, unassigned) [Compound 086_D2, (3R,8R*)—N-(3-bromo-4-fluorophenyl)-8-(hydroxymethyl)-3,10-dimethyl-11-oxo-1,3,4,7,8,9,10,11-octahydro-2H-pyrido[4′,3′:3,4]pyrazolo[1,5-a][1,4]diazepine-2-carboxamide] | 1 to 100 |
| CN1CC(CNCC(F)F)Cn2nc3c(c2C1=O)CN(C(=O)Nc1ccc(F)c(Br)c1F)CC3 (single isomer, unassigned) [Compound 129_E2, (S*)—N-(3-bromo-2,4-difluorophenyl)-8-(((2,2-difluoroethyl)amino)methyl)-10-methyl-11-oxo-1,3,4,7,8,9,10,11-octahydro-2H-pyrido[4′,3′:3,4]pyrazolo[1,5-a][1,4]diazepine-2-carboxamide] | 1 to 100 |
| C[C@@H]1Cc2nn3c(c2CN1C(=O)Nc1ccc(F)c(Br)c1F)C(=O)N(C)CC(CO)C3 (single isomer, unassigned) [Compound 084_D1, (3R,8S*)—N-(3-bromo-2,4-difluorophenyl)-8-(hydroxymethyl)-3,10-dimethyl-11-oxo-1,3,4,7,8,9,10,11-octahydro-2H-pyrido[4′,3′:3,4]pyrazolo[1,5-a][1,4]diazepine-2-carboxamide] | 100 to 500 |
| C=CC(O)C1CN(C)C(=O)c2c3c(nn2C1)CC(C)N(C(=O)Nc1ccc(F)c(C(F)(F)F)c1)C3 [Compound 122_D2, (3R,8S*)—N-(4-fluoro-3-(trifluoromethyl)phenyl)-8-((S*)-1-hydroxyallyl)-3,10-dimethyl-11-oxo-1,3,4,7,8,9,10,11-octahydro-2H-pyrido[4′,3′:3,4]pyrazolo[1,5-a][1,4]diazepine-2-carboxamide] | 100 to 500 |
| C[C@@H]1Cc2nn3c(c2CN1C(=O)Nc1ccc(F)c(C(F)(F)F)c1)C(=O)N(C)CC(CO)C3 (single isomer, unassigned) [Compound 081_D2, (3R,8R*)—N-(4-fluoro-3-(trifluoromethyl)phenyl)-8-(hydroxymethyl)-3,10-dimethyl-11-oxo-3,4,8,9,10,11-hexahydro-1H-pyrido[4′,3′:3,4]pyrazolo[1,5-a][1,4]diazepine-2 (7H)-carboxamide] | 1 to 100 |
| C[C@@H]1Cc2nn3c(c2CN1C(=O)Nc1cc(Cl)c(F)cc1F)C(=O)N(C)CC(CO)C3 (single isomer, unassigned) [Compound 090_D2, (3R,8R*)—N-(5-chloro-2,4-difluorophenyl)-8-(hydroxymethyl)-3,10-dimethyl-11-oxo-1,3,4,7,8,9,10,11-octahydro-2H-pyrido[4′,3′:3,4]pyrazolo[1,5-a][1,4]diazepine-2-carboxamide] | 1 to 100 |

same assay, conditions: Hepatitis B virus, HepG2.2.15, Activity in BDNA-assay

| Structure (SMILES) | EC50 [nM] |
| --- | --- |
| CN1CC(F)Cn2nc3c(c2C1=O)CN(C(=O)Nc1ccnc(Br)c1F)CC3 (stereo not drawn) [Compound 008, N-(2-bromo-3-fluoropyridin-4-yl)-8-fluoro-10-methyl-11-oxo-1,3,4,7,8,9,10,11-octahydro-2H-pyrido[4′,3′:3,4]pyrazolo[1,5-a][1,4]diazepine-2-carboxamide] | 1 to 100 |
| CN1CC(N2CCCCC2)Cn2nc3c(c2C1=O)CN(C(=O)Nc1ccc(F)c(Cl)c1)CC3 (stereo not drawn) [Compound 055, N-(3-chloro-4-fluorophenyl)-10-methyl-11-oxo-8-(piperidin-1-yl)-1,3,4,7,8,9,10,11-octahydro-2H-pyrido[4′,3′:3,4]pyrazolo[1,5-a][1,4]diazepine-2-carboxamide] | 100 to 500 |
| CN1CCC(C(=O)O)n2nc3c(c2C1=O)CN(C(=O)Nc1ccc(F)c(Cl)c1)CC3 (stereo not drawn) [Compound 113, 2-((3-chloro-4-fluorophenyl)carbamoyl)-10-methyl-11-oxo-1,3,4,7,8,9,10,11-octahydro-2H-pyrido[4′,3′:3,4]pyrazolo[1,5-a][1,4]diazepine-7-carboxylic acid] | > 1000 |
| CCC(O)C1CN(C)C(=O)c2c3c(nn2C1)CCN(C(=O)Nc1ccc(F)c(Cl)c1)C3 (stereo not drawn) [Compound 035] | 1 to 100 |
| CCC(O)C1CN(C)C(=O)c2c3c(nn2C1)CC(C)N(C(=O)Nc1ccc(F)c(C(F)(F)F)c1)C3 [Compound 107_D1, (3R,8S*)—N-(4-fluoro-3-(trifluoromethyl)phenyl)-8-((R)-1-hydroxypropyl)-3,10-dimethyl-11-oxo-1,3,4,7,8,9,10,11-octahydro-2H-pyrido[4′,3′:3,4]pyrazolo[1,5-a][1,4] diazepine-2-carboxamide] | 1 to 100 |
| CN1CC(CNCC(F)F)Cn2nc3c(c2C1=O)CN(C(=O)Nc1ccc(F)c(C#N)c1)CC3 (single isomer, unassigned) [Compound 118_E2, (S*)—N-(3-cyano-4-fluorophenyl)-8-(((2,2-difluoroethyl)amino)methyl)-10-methyl-11-oxo-1,3,4,7,8,9,10,11-octahydro-2H-pyrido[4′,3′:3,4]pyrazolo[1,5-a][1,4]diazepine-2-carboxamide] | 1 to 100 |
| CN1CCn2nc3c(c2C1=O)CN(C(=O)Nc1ccc(F)c(Cl)c1)CC3 [Compound 045, N-(3-chloro-4-fluorophenyl)-9-methyl-10-oxo-3,4,7,8,9,10-hexahydropyrido[4′,3′:3,4]pyrazolo [1,5-a]pyrazine-2 (1H)-carboxamide] | 1 to 100 |
| CN1CC(CO)(CC(F)F)Cn2nc3c(c2C1=O)CN(C(=O)Nc1ccc(F)c(Cl)c1)CC3 (stereo not drawn) [Compound 091, N-(3-chloro-4-fluorophenyl)-8-(2,2-difluoroethyl)-8-(hydroxmethyl)-10-methyl-11-oxo-1,3,4,7,8,9,10,11-octahydro-2H-pyrido[4′,3′:3,4]pyrazolo[1,5-a][1,4]diazepine-2-carboxamide] | 100 to 500 |
| CN1CC(CN2CCC(F)(F)C2)Cn2nc3c(c2C1=O)CN(C(=O)Nc1ccc(F)c(C#N)c1)CC3 (stereo not drawn) [Compound 067, N-(3-cyano-4-fluorophenyl)-8-((3,3-difluoropyrrolidin-1-yl)methyl)-10-methyl-11-oxo-1,3,4,7,8,9,10,11-octahydro-2H-pyrido[4′,3′:3,4]pyrazolo[1,5-a][1,4]diazepine-2-carboxamide] | 100 to 500 |
| CN1CC(O)Cn2nc3c(c2C1=O)CN(C(=O)Nc1ccc(F)c(Cl)c1)CC3 (stereo not drawn) [Compound 004, N-(3-chloro-4-fluorophenyl)-8-hydroxy-10-methyl-11-oxo-1,3,4,7,8,9,10,11-octahydro-2H-pyrido[4′,3′:3,4]pyrazolo[1,5-a][1,4]diazepine-2-carboxamide] | 1 to 100 |
| C[C@@H]1Cc2nn3c(c2CN1C(=O)Nc1cc(Cl)c(F)cc1F)C(=O)N(CC(F)F)CCC3 [Compound 078, (R)—N-(5-chloro-2,4-difluorophenyl)-10-(2,2-difluoroethyl)-3-methyl-11-oxo-1,3,4,7,8,9,10,11-octahydro-2H-pyrido[4′,3′:3,4]pyrazolo[1,5-a][1,4]diazepine-2-carboxamide] | 100 to 500 |
| COC(=O)C1CCn2nc3c(c2C(=O)N1C)CN(C(=O)Nc1ccc(F)c(Cl)c1)CC3 (stereo not drawn) [Compound 057, methyl 2-((3-chloro-4-fluorophenyl)carbamoyl)-10-methyl-11-oxo-1,3,4,7,8,9,10,11-octahydro-2H-pyrido[4′,3′:3,4]pyrazolo[1,5-a][1,4]diazepine-9-carboxylate] | 100 to 500 |
